Laboratory results from patent US20030220252A1, “Method for treating a patient with neoplasia by treatment with a gonadotropin releasing hormone analog” (priority 1998, published 2003).

Experiments:
[1] = system: cGMP-PDE; assay: cGMP-PDE inhibition assay, enzyme purified from HT-29 tumor cells; type: biochemical, human; details: for % Inhibition at 100 μM (cGMP PDE): test compounds
[2] = system: HT-29 human colon carcinoma cell line; assay: Growth inhibition of HT-29 cells (SRB assay; trypan blue count); type: cell-based
[3] = system: COX; assay: COX inhibition; type: biochemical; details: 100 μM
[4] = system: PDE peak B (novel cGMP-specific PDE); assay: cGMP hydrolysis by PDE peak B isolated from SW-480 cells; type: biochemical, human
[5] = molecular target: T1, PDE peak A (PDE5) (Homo sapiens, UniProt O76074); assay: cGMP hydrolysis by PDE peak A isolated from SW-480 cells; type: biochemical
T1 construct: SW-480 cells are collected and homogenized; endogenous in cells; host or cells: SW-480 human colon adenocarcinoma cells; supernatant of homogenate fractionated on DEAE-Trisacryl M

[6] = Side effects of exisulind on administration; type: in vivo; details: reversible
Description: This effect is reversible, and liver enzymes return to normal levels when the administered dose of exisulind returns to the traditionally recommended level or when treatment is discontinued. The most serious side effects of GnRH analogs, on the other hand, are related to decreases serum levels of estrogen and testosterone.

[7] = system: premalignant lesions in mouse mammary gland organ culture; assay: Mammary gland organ culture model; type: cell-based
Procedure: For example, female BALB/c mice can be treated with a combination of estradiol and progesterone daily, in order to prime the glands to be responsive to hormones in vitro. The animals are sacrificed and thoracic mammary glands are excised aseptically and incubated for ten days in growth media supplemented with insulin, prolactin, hydrocortisone, and aldosterone. DMBA (7,12-dimethylbenz(a)anthracene) is added to medium to induce the formation of premalignant lesions. Fully developed glands are then deprived of prolactin, hydrocortisone, and aldosterone, resulting in the regression of the glands but not the premalignant lesions.
The test compound is dissolved in DMSO and added to the culture media for the duration of the culture period. At the end of the culture period, the glands are fixed in 10% formalin, stained with alum carmine, and mounted on glass slides. The extent of the area occupied by the mammary lesions can be quantitated by projecting an image of the gland onto a digitation pad. The area covered by the gland is traced on the pad and considered as 100% of the area. The space covered by each of the unregressed structures is also outlined on the digitization pad and quantitated by the computer.
The incidence of forming mammary lesions is the ratio of the glands with mammary lesions to […]. The incidence of mammary lesions in test compound treated glands is compared with that of the untreated glands.
Mammary gland organ culture experiments were performed as previously described (Mehta and Moon, Cancer Research, 46: 5832-5835, 1986). […] The data support the hypothesis that cyclooxygenase inhibition is not necessary for the anti-neoplastic properties of desired compounds.

[8] = system: HT-29 cells; assay: Apoptosis and necrosis by morphology (acridine orange/ethidium bromide) in HT-29 cells; type: cell-based, human; details: for apoptotic and necrotic cell death, in words: HT-29 cells treated for six days
Procedure: Treatment of cells with test compounds involves either pre- or post-confluent cultures and treatment for two to seven days at various concentrations of the compound in question. Apoptotic cells are measured by combining both the attached and “floating” compartments of the cultures. The protocol for treating tumor cell cultures with sulindac and related compounds to obtain a significant amount of apoptosis has been described in the literature. (See, Piazza, G. A., et al., Cancer Research, 55:3110-16, 1995, which is incorporated herein by reference). The novel features include collecting both floating and attached cells, identification of the optimal treatment times and dose range for observing apoptosis, and identification of optimal cell culture conditions.
Following treatment with a test compound, cultures can be assayed for apoptosis and necrosis by fluorescent microscopy following labeling with acridine orange and ethidium bromide. The method for measuring apoptotic cell number has previously been described by Duke & Cohen, “Morphological And Biochemical Assays Of Apoptosis,” Current Protocols In Immunology, Coligan et al., eds., 3.17.1-3.17.16 (1992, which is incorporated herein by reference).
For example, floating and attached cells can be collected, and aliquots of cells can be centrifuged. The cell pellet can then be resuspended in media and a dye mixture containing acridine orange and ethidium bromide. The mixture can then be examined microscopically for morphological features of apoptosis.
Reference compounds and test compounds were analyzed for their cGMP-specific PDE inhibitory activity in accordance with the protocols for the assay, supra. […] Apoptotic and necrotic cell death was determined as previously described (Duke and Cohen, In: Current Protocols in Immunology, 3.17.1-3.17.16, New York, John Wiley and Sons, 1992). […]
The apoptosis inducing activity for a series of phosphodiesterase inhibitors was determined. […] Apoptosis and necrosis were determined morphologically after acridine orange and ethidium bromide labeling in accordance with the assay described, supra.

[9] = system: cAMP levels in HT-29 cells; assay: cAMP levels in HT-29 cells by radioimmunoassay; type: cell-based, human; details: HT-29 cells treated 30 minutes
Description: It has been observed that a compound which is useful in the practice of this invention (i.e., one that selectively induces apoptosis in neoplastic cells, but not substantially in normal cells) follows a time course consistent with cGMP-specific PDE inhibition. […] The intracellular targets of these drug actions are being studied further, but current data support the concept that the initial rise in cGMP content and the subsequent fall in cAMP content precede apoptosis in neoplastic cells exposed to test compounds useful in this invention. To determine the cyclic AMP content in cell extracts, radioimmunoassay techniques similar to those described above for cGMP are used.

[10] = system: cGMP levels in HT-29 cells; assay: cGMP levels in HT-29 cells by radioimmunoassay; type: cell-based, human; details: HT-29 cells treated 30 minutes

Compound | % Inhibition at 100 μM (cGMP PDE) [1] | inhibition / sensitivity of the new cGMP-PDE (peak B), in words [4] | inhibition of peak A (PDE5), in words [5] | also measured
CCN(CC)CCSC12CC(=O)OC1(C)/C(=C/c1ccc(S(C)(=O)=O)cc1)c1ccc(F)cc12 (racemic) [A, rac-threo-(E)-1-(N,N′-diethylaminoethanethio)-1-(butan-1′,4′-olido)-[3′,4′:1,2]-6-fluoro-2-methyl-3-(p-methylsulfonylbenzylidene)-indan] | <25% |  |  | Growth inhibitory activity, % Inhibition at 100 μM ([2]; 100 μM single dose): 68%
CC1=C(CC(=O)O)c2cc(F)ccc2/C1=C\c1ccc(Cl)cc1 [C, (Z)-5-Fluoro-2-methyl-1-(p-chlorobenzylidene)-3-acetic acid] | <25% |  |  | 
COc1cc(C=C2C(C)=C(CC(=O)O)c3cc(F)ccc32)cc(OC)c1OC [Compound B, (Z)-5-Fluoro-2-methyl-1-(3,4,5-trimethoxybenzylidene)-3-acetic acid] | <25% |  |  | COX inhibition, in words [3]: did not inhibit COX
O=C([O-])C1CCN(c2nc(NCc3ccc4c(c3)OCO4)c3cc(Cl)ccc3n2)CC1.[Na+] [Compound E4021] |  | relatively insensitive |  | 
COc1cc(/C=C2/C(C)=C(CC(=O)NCc3ccccc3)c3cc(F)ccc32)cc(OC)c1OC [Compound E, (Z)-5-Fluoro-2-methyl-1-(3,4,5-trimethoxybenzylidene)-3-indenylacetamide, N-benzyl] | 75% | competitively inhibit | competitively inhibit | COX inhibition, in words [3]: did not inhibit COX
CC1=C(CC(=O)O)c2cc(F)ccc2/C1=C\c1ccc(S(C)(=O)=O)cc1 [Exisulind, (Z)-5-fluoro-2-methyl-1-[[4-(methylsulfonyl)phenyl]methylene]indene-3-yl acetic acid] |  | inhibits both PDE5 and the new cGMP-PDE | inhibits both PDE5 and the new cGMP-PDE | % Inhibition at 10 μM (cGMP PDE) [1]: 39%; effect at doses higher than the recommended therapeutic levels [6]: elevated levels of liver enzymes; inhibition of premalignant lesions in mammary gland organ culture, in words [7]: effectively inhibit the formation of premalignant lesions; apoptotic and necrotic cell death, in words [8]: capable of causing apoptotic cell death without inducing necrosis
CC1(C)C(=O)Nc2ccc(C3=NNC(=O)CC3)cc21 [Indolidan] |  | relatively insensitive |  | 
COc1ccc(C2CNC(=O)C2)cc1OC1CCCC1 (stereo not drawn) [Rolipram] |  | relatively insensitive |  | effect on levels of cAMP, in words [9]: increased cAMP levels
CCCc1nn(C)c2c(=O)[nH]c(-c3cc(S(=O)(=O)N4CCN(C)CC4)ccc3OCC)nc12 [Sildenafil] |  | relatively insensitive | inhibited activity of peak A | 
CSc1ccc(/C=C2/C(C)=C(CC(=O)O)c3cc(F)ccc32)cc1 [Sulindac sulfide] |  | competitively inhibit | competitively inhibit | increase of the levels of cGMP [10]: greater than 50%; % Inhibition at 10 μM (cGMP PDE) [1]: 97%; effect on levels of cAMP, in words [9]: unaffected; inhibition of premalignant lesions in mammary gland organ culture, in words [7]: inactive; growth inhibition by counting viable cells after trypan blue staining, in words ([2]; 120 μM, time course): capable of inhibiting tumor cell growth; apoptosis by morphological determination, in words ([8]; 120 μM, time course): increase in apoptosis; apoptotic and necrotic cell death, in words [8]: capable of causing apoptotic cell death without inducing necrosis
CCOC(=O)C1=C[C@]2(CC)CCCN3CCc4c(n1c1ccccc41)[C@@H]32 [Vinpocetine] |  | relatively insensitive |  | 
CCCOc1ccccc1-c1nc2nn[nH]c2c(=O)[nH]1 [Zaprinast] |  | relatively insensitive |  | 
CC1=C(CC(=O)O)c2cc(F)ccc2/C1=C/c1ccc([S+](C)[O-])cc1 (stereo not drawn) [sulindac sulfoxide] |  |  |  | inhibition of premalignant lesions in mammary gland organ culture, in words [7]: effectively inhibit the formation of premalignant lesions
